ChEMBL document CHEMBL4002625, “Synthesis and structure-activity relationship studies of phenolic hydroxyl derivatives based on quinoxalinone as aldose reductase inhibitors with antioxidant activity” (Bioorg Med Chem Lett, 2017)

What was measured:
[1] = Antioxidant activity assessed as DPPH radical scavenging activity at 50 uM after 240 mins by UV spectrophotometer relative to control; format: functional
[2] = Antioxidant activity assessed as DPPH radical scavenging activity at 100 uM after 240 mins by UV spectrophotometer relative to control; format: functional
[3] = biological target: Aldo-keto reductase family 1 member B1 (Rattus norvegicus, UniProt P07943); assay: Inhibition of rat lens ALR2 using D,L-glyceraldehyde as substrate assessed as decrease in NADPH oxidation preincubated for 10 mins followed by substrate addition measured for 4 mins by spectrophotometer
[4] = Antioxidant activity assessed as DPPH radical scavenging activity at 10 uM after 240 mins by UV spectrophotometer relative to control; format: functional

Compound | Activity [1] [%] | Activity [2] [%] | IC50 [3] [nM] | Activity [4] [%]
COc1ccc2c(c1)nc(/C=C/c1ccc(O)cc1)c(=O)n2CC(=O)O | 27.6 | 51.8 | 98 | –
O=C(O)Cn1c(=O)c(/C=C/c2ccc(O)c(O)c2)nc2cc(O)ccc21 | 77.8 | 90.4 | 159 | 64.2
COc1ccc2c(c1)nc(CCc1ccc(O)c(OC)c1)c(=O)n2CC(=O)O | – | 31.9 | 983 | –
COc1ccc2nc(-c3ccc(O)cc3)c(=O)n(CC(=O)O)c2c1 | – | 12.3 | 2080 | –
COc1ccc2nc(/C=C/c3ccc(O)cc3)c(=O)n(CC(=O)O)c2c1 | 34.3 | 59.2 | 59 | –
O=C(O)Cn1c(=O)c(-c2ccccc2)nc2cc(O)ccc21 | – | 15.8 | 4290 | –
COc1ccc2nc(/C=C/c3ccccc3)c(=O)n(CC(=O)O)c2c1 | – | – | 924 | –
Cc1c(C)c2c(c(C)c1O)CCC(C)(C(=O)O)O2 (stereo not given) | 92.7 | 96.5 | – | 89.3
O=C(O)Cn1c(=O)c(/C=C/c2ccc(O)c(O)c2)nc2ccc(O)cc21 | 82.1 | 96.2 | 102 | 70.5
COc1ccc2nc(CCc3ccc(O)c(OC)c3)c(=O)n(CC(=O)O)c2c1 | – | 28.3 | 847 | –
COc1ccc2nc(-c3cc(O)ccc3O)c(=O)n(CC(=O)O)c2c1 | – | 25.4 | 865 | –
COc1ccc2nc(-c3ccc(O)cc3O)c(=O)n(CC(=O)O)c2c1 | – | 37.2 | 179 | –
COc1ccc2c(c1)nc(-c1ccccc1)c(=O)n2CC(=O)O | – | – | 6820 | –
COc1ccc2nc(-c3ccccc3)c(=O)n(CC(=O)O)c2c1 | – | – | 5310 | –
O=C(O)Cn1c(=O)c(-c2ccccc2)nc2ccc(O)cc21 | – | 19.1 | 3950 | –
COc1ccc2c(c1)nc(/C=C/c1ccc(O)c(OC)c1)c(=O)n2CC(=O)O | 61.4 | 74.9 | 185 | 39.7
COc1ccc2nc(-c3c(O)cc(O)cc3O)c(=O)n(CC(=O)O)c2c1 | 69.3 | 80.6 | 116 | 40.6
COc1ccc2nc(/C=C/c3ccc(O)c(OC)c3)c(=O)n(CC(=O)O)c2c1 | 65.9 | 83.5 | 210 | 42.2
COc1ccc2nc(CCc3ccc(O)cc3)c(=O)n(CC(=O)O)c2c1 | – | 20.7 | 508 | –
COc1ccc2nc(CCc3ccccc3)c(=O)n(CC(=O)O)c2c1 | – | – | 1300 | –
COc1ccc2c(c1)nc(-c1c(O)cc(O)cc1O)c(=O)n2CC(=O)O | 53.7 | 68.7 | 273 | 36.4
COc1ccc2nc(-c3cccc(O)c3)c(=O)n(CC(=O)O)c2c1 | – | 8.5 | 3410 | –
